Reference: patent US20080114047A1 (priority 2003, published 2008)
Counter-ions that a name gives are not always drawn.

System: not listed separately
Test: in vitro
Details: not given

SMILES	IC50 [µM]
N=C(NO)c1ccc2oc(CCc3cc4cc(C(=N)NO)ccc4o3)cc2c1 [Compound 190, 2-(2-(5-(N-Hydroxycarbamimidoyl)benzofuran-2-yl)ethyl)-N-hydroxybenzofuran-5-carboxamidine]	> 199

System: not given
Test: not given
Details: not given

melting point	SMILES
366 °C (dec.)	Cl.Cl.c1cc2oc(CCc3cc4cc(C5=NCCN5)ccc4o3)cc2cc1C1=NCCN1 [Compound 10, 4,5-Dihydro-2-(2-(2-(5-(4,5-dihydro-1H-imidazol-2-yl)benzofuran-2-yl)ethyl)benzofuran-5-yl)-1H-imidazole dihydrochloride]
> 300 °C (dec.)	Cl.Cl.N=C(N)c1ccc2cc(CCCc3cc4ccc(C(=N)N)cc4o3)oc2c1 [Compound 17, 2-(3-(6-Amidinobenzofuran-2-yl)propyl)benzofuran-6-carboxamidine dihydrochloride]
333 to 335 °C	Cl.Cl.c1cc(C2=NCCN2)c2cc(Cc3cc4c(C5=NCCN5)cccc4o3)oc2c1 [Compound 3, Bis(4-(4,5-dihydro-1H-imidazol-2-yl)benzofuran-2-yl)methane dihydrochloride]
245 to 246 °C (dec.)	CONC(=N)c1ccc2oc(CCc3cc4cc(C(=N)NOC)ccc4o3)cc2c1 (as salt: HCl) [Compound 191, 2-(2-(5-(N-Methoxycarbamimidoyl)benzofuran-2-yl)ethyl)-N-methoxybenzofuran-5-carboxamidine]
212 to 214 °C	Cl.Cl.N=C(N)c1ccc2oc(Cc3cc4cc(C(=N)N)ccc4o3)cc2c1 [Compound 4, 2-((5-Amidinobenzofuran-2-yl)methyl)benzofuran-5-carboxamidine dihydrochloride]
341 to 343 °C	Cl.Cl.c1cc2cc(Cc3cc4ccc(C5=NCCN5)cc4o3)oc2cc1C1=NCCN1 [Compound 7, Bis(6-(4,5-dihydro-1H-imidazol-2-yl)benzofuran-2-yl)methane dihydrochloride]
155 to 157 °C	Cl.Cl.c1cc2oc(CCCCCc3cc4cc(C5=NCCN5)ccc4o3)cc2cc1C1=NCCN1 [Compound 28, 4,5-Dihydro-2-(2-(5-(5-(4,5-dihydro-1H-imidazol-2-yl)benzofuran-2-yl)pentyl)benzofuran-5-yl)-1H-imidazole dihydrochloride]
> 300 °C (dec.)	Cl.Cl.c1cc2cc(CCCc3cc4ccc(C5=NCCN5)cc4o3)oc2cc1C1=NCCN1 [Compound 19, 4,5-Dihydro-2-(2-(3-(6-(4,5-dihydro-1H-imidazol-2-yl)benzofuran-2-yl)propyl)benzofuran-6-yl)-1H-imidazole dihydrochloride]
325 to 327 °C (dec.)	Cl.Cl.N=C(N)c1ccc2oc(CCCCc3cc4cc(C(=N)N)ccc4o3)cc2c1 [Compound 20, 2-(4-(5-Amidinobenzofuran-2-yl)butyl)benzofuran-5-carboxamidine dihydrochloride]
233 to 235 °C	Cl.Cl.c1cc2oc(Cc3cc4cc(C5=NCCN5)ccc4o3)cc2cc1C1=NCCN1 [Compound 6, Bis(5-(4,5-dihydro-1H-imidazol-2-yl)benzofuran-2-yl)methane dihydrochloride]
203 to 205 °C	Cl.Cl.c1cc2oc(CCCc3cc4cc(C5=NCCN5)ccc4o3)cc2cc1C1=NCCN1 [Compound 16, 4,5-Dihydro-2-(2-(3-(5-(4,5-dihydro-1H-imidazol-2-yl)benzofuran-2-yl)propyl)benzofuran-5-yl)-1H-imidazole dihydrochloride]
323 to 324 °C (dec.)	Cl.Cl.c1cc2oc(CCCCc3cc4cc(C5=NCCN5)ccc4o3)cc2cc1C1=NCCN1 [Compound 22, 4,5-Dihydro-2-(2-(4-(5-(4,5-dihydro-1H-imidazol-2-yl)benzofuran-2-yl)butyl)benzofuran-5-yl)-1H-imidazole dihydrochloride]
328 to 330 °C (dec.)	Cl.Cl.N=C(N)c1ccc2cc(CCCCc3cc4ccc(C(=N)N)cc4o3)oc2c1 [Compound 23, 2-(4-(6-Amidinobenzofuran-2-yl)butyl)benzofuran-6-carboxamidine dihydrochloride]
343 to 345 °C (dec.)	Cl.Cl.c1cc2cc(CCCCc3cc4ccc(C5=NCCN5)cc4o3)oc2cc1C1=NCCN1 [Compound 25, 4,5-Dihydro-2-(2-(4-(6-(4,5-dihydro-1H-imidazol-2-yl)benzofuran-2-yl)butyl)benzofuran-6-yl)-1H-imidazole dihydrochloride]
308 to 310 °C (dec.)	Cl.Cl.c1cc2cc(CCCCCc3cc4ccc(C5=NCCN5)cc4o3)oc2cc1C1=NCCN1 [Compound 31, 4,5-Dihydro-2-(2-(5-(6-(4,5-dihydro-1H-imidazol-2-yl)benzofuran-2-yl)pentyl)benzofuran-6-yl)-1H-imidazole dihydrochloride]
243 to 245 °C (dec.)	Cl.Cl.N=C(N)c1ccc2cc(CCCCCc3cc4ccc(C(=N)N)cc4o3)oc2c1 [Compound 29, 2-(5-(6-Amidinobenzofuran-2-yl)pentyl)benzofuran-6-carboxamidine dihydrochloride]
168 to 170 °C	Cl.Cl.N=C(N)c1ccc2oc(CCCc3cc4cc(C(=N)N)ccc4o3)cc2c1 [Compound 14, 2-(3-(5-Amidinobenzofuran-2-yl)propyl)benzofuran-5-carboxamidine dihydrochloride]
> 360 °C	Cl.Cl.c1cc2cc(CCc3cc4ccc(C5=NCCN5)cc4o3)oc2cc1C1=NCCN1 [Compound 13, 4,5-dihydro-2-(2-(2-(6-(4,5-dihydro-1H-imidazol-2-yl)benzofuran-2-yl)ethyl)benzofuran-6-yl)-1H-imidazole dihydrochloride]

Continued, compound first:

SMILES	melting point
N=C(NO)c1cccc(-c2cc3ccc(C(=N)NO)cc3o2)c1 (as salt: HCl) [Compound 180, 2-(3-(N-Hydroxycarbamimidoyl)phenyl)-N-hydroxybenzofuran-6-carboxamidine]	210 °C (dec.)
CONC(=N)c1ccc2cc(CCCCCc3cc4ccc(C(=N)NOC)cc4o3)oc2c1 (as salt: HCl) [Compound 187, 2-(5-(6-(N-Methoxycarbamimidoyl)benzofuran-2-yl)pentyl)-N-methoxybenzofuran-6-carboxamidine]	230 to 231 °C (dec.)
N=C(NO)c1ccc(OCCCOc2ccc(-c3cc4cc(C(=N)NO)ccc4o3)cc2)cc1 (as salt: HCl) [Compound 182, 2-(4-(3-(4-(N-Hydroxycarbamimidoyl)phenoxy)propoxy)phenyl)-N-hydroxybenzofuran-5-carboxamidine]	204 °C (dec.)
Cl.Cl.N=C(N)c1ccc(OCCCOc2ccc(-c3cc4ccc(C(=N)N)cc4o3)cc2)cc1	294 to 295 °C
CONC(=N)c1ccc2oc(CCCCCc3cc4cc(C(=N)NOC)ccc4o3)cc2c1 (as salt: HCl) [Compound 193, 2-(5-(5-(N-Methoxycarbamimidoyl)benzofuran-2-yl)pentyl)-N-methoxybenzofuran-5-carboxamidine]	118 °C (dec.)
N=C(NO)c1ccc2cc(CCCCCc3cc4ccc(C(=N)NO)cc4o3)oc2c1 (as salt: HCl) [Compound 184, 2-(5-(6-(N-Hydroxycarbamimidoyl)benzofuran-2-yl)pentyl)-N-hydroxybenzofuran-6-carboxamidine]	220 °C (dec.)
N=C(NO)c1ccc2oc(CCCCCc3cc4cc(C(=N)NO)ccc4o3)cc2c1 (as salt: HCl) [Compound 192, 2-(5-(5-(N-Hydroxycarbamimidoyl)benzofuran-2-yl)pentyl)-N-hydroxybenzofuran-5-carboxamidine]	120 °C (dec.)
Cl.Cl.N=C(N)c1ccc2cc(CCc3cc4ccc(C(=N)N)cc4o3)oc2c1 [Compound 11, 2-(2-(6-Amidinobenzofuran-2-yl)ethyl)benzofuran-6-carboxamidine dihydrochloride]	362 °C (dec.)
N=C(NO)c1ccc(-c2cc3ccc(C(=N)NO)cc3o2)cc1 (as salt: HCl) [Compound 181, 2-(4-(N-Hydroxycarbamimidoyl)phenyl)-N-hydroxybenzofuran-6-carboxamidine]	210 °C (dec.)
N=C(NO)c1ccc(OCCCCCOc2ccc(-c3cc4cc(C(=N)NO)ccc4o3)cc2)cc1 (as salt: HCl) [Compound 183, 2-(4-(5-(4-(N-Hydroxycarbamimidoyl)phenoxy)pentyloxy)phenyl)-N-hydroxybenzofuran-5-carboxamidine]	202 °C (dec.)
N=C(NO)c1ccc2oc(CCCCc3cc4cc(C(=N)NO)ccc4o3)cc2c1 (as salt: HCl) [Compound 186, 2-(4-(5-(N-Hydroxycarbamimidoyl)benzofuran-2-yl)butyl)-N-hydroxybenzofuran-5-carboxamidine]	231 °C (dec.)
c1cc(OCCCCCCOc2ccc(C3=NCCN3)cc2)cc(-c2cc3cc(C4=NCCN4)ccc3o2)c1 (as salt: salt) [Compound 43, 2-(2-(3-(6-(4-(4,5-Dihydro-1H-imidazol-2-yl)phenoxy)hexyloxy)phenyl)benzofuran-5-yl)-4,5-dihydro-1H-imidazole]	178 to 182 °C
CONC(=N)c1ccc2oc(CCCCc3cc4cc(C(=N)NOC)ccc4o3)cc2c1 (as salt: HCl) [Compound 189, 2-(4-(5-(N-Methoxycarbamimidoyl)benzofuran-2-yl)butyl)-N-methoxybenzofuran-5-carboxamidine]	248 to 250 °C (dec.)
N=C(NO)c1ccc2oc(CCCc3cc4cc(C(=N)NO)ccc4o3)cc2c1 (as salt: HCl) [Compound 185, 2-(3-(5-(N-Hydroxycarbamimidoyl)benzofuran-2-yl)propyl)-N-hydroxybenzofuran-5-carboxamidine]	145 to 147 °C (dec.)
CONC(=N)c1ccc2oc(CCCc3cc4cc(C(=N)NOC)ccc4o3)cc2c1 (as salt: HCl) [Compound 188, 2-(3-(5-(N-Methoxycarbamimidoyl)benzofuran-2-yl)propyl)-N-methoxybenzofuran-5-carboxamidine]	89 to 90 °C (dec.)

System: Trypanosoma brucei rhodesiense
Test: Anti-protozoan data: T.b.r. IC50
Format: cell-based
Details: Tables VI(a), VI(c), read-out: T.b.r. IC50

SMILES	IC50 [µM]
N=C(NO)c1ccc2oc(CCc3cc4cc(C(=N)NO)ccc4o3)cc2c1 [Compound 190, 2-(2-(5-(N-Hydroxycarbamimidoyl)benzofuran-2-yl)ethyl)-N-hydroxybenzofuran-5-carboxamidine]	10.1

System: Plasmodium falciparum
Test: Anti-protozoan data: P. falcip. IC50
Format: cell-based
Details: Tables VI(a), VI(c), read-out: P. falcip. IC50

SMILES	IC50 [µM]
N=C(NO)c1ccc2oc(CCc3cc4cc(C(=N)NO)ccc4o3)cc2c1 [Compound 190, 2-(2-(5-(N-Hydroxycarbamimidoyl)benzofuran-2-yl)ethyl)-N-hydroxybenzofuran-5-carboxamidine]	0.4
